The values that follow come from US11590105B2, “Intrathecal administration of levetiracetam” (Sintetica S.A., priority 2019, dated 2023).

The data set in a line: Osmolality of various concentrations of levetiracetam in water. In kind it is physicochemical. The text has this:
Sodium chloride and other halide salts that affect the tonicity of the solution are preferably omitted from the formulations and unnecessary because levetiracetam itself yields an isotonic (or slightly above isotonic) formulation in the formulations of the present invention. The following table gives the osmolality of various concentrations of levetiracetam in water: […]

`CC[C@@H](C(N)=O)N1CCCC1=O` [Levetiracetam, (−)-(S)-α-ethyl-2-oxo-1-pyrrolidine acetamide]: the Osmolality was 16 mOsm/kg (levetiracetam conc. 2.75 mg/ml in water); 262 mOsm/kg (levetiracetam conc. 45 mg/ml in water); 292 mOsm/kg (levetiracetam conc. 50 mg/ml in water); 348 mOsm/kg (levetiracetam conc. 60 mg/ml in water); 377 mOsm/kg (levetiracetam conc. 65 mg/ml in water).
